Assay results taken from patent US20260345791A1, “EIF4A INHIBITORS AND USES THEREOF” (The Regents of the University of California, priority 2022, published 2026).

Tests used:
[1] = tested on: interferon-induced transmembrane (IFITM) proteins; assay: Genome-scale chemical-genetic identification of uptake pathway; format: cell-based; conditions: genome-scale chemical-genetic approaches
Text: We devised additional linked inhibitors targeting EIF4A1 (BisRoc-1, molecular weight: 1466 g/mol) whose uptake we predicted would be assisted by IFITM proteins. This uptake pathway should provide a general mechanism by which large, flexibly linked chimeric molecules can gain assisted access to the cytosol, including compounds with mechanisms of action not easily accessible to traditional drug-like molecules.

[2] = tested on: MTOR; conditions: cited from earlier work
[3] = in vivo; cited from earlier work
[4] = tested on: K562 CRISPRi or CRISPRa cells; IFITM1, IFITM2, IFITM3; assay: Viability of K562 CRISPRi/CRISPRa cells with modulated IFITM expression (chemical-genetic interaction, IC50 shift); format: cell-based; conditions: for IFITM assistance versus linker length: linker series: BisRoc-1 (PEG11), BisRoc-2 (PEG4), BisRoc-3 (PEG2), rocaglamide (no linker), FIG. 2B
Text: FIGS. 1A-1E. Longer linker length correlates with greater IFITM assistance in a series of linked rocaglamide analogs. FIG. 1A: Crystal structure of rocaglamide bound to eIF4A1 and polypurine RNA showing adjacent symmetry mates (PDB, 5ZC9). The distance between RocA molecules bound to adjacent eIF4A1 proteins is approximately 14 Å and the solvent exposed amide on RocA offers a handle for chemical modification. FIG. 1B: Chemical structures of select eIF4A1 inhibitors. FIGS. 1C-1D: Viability of K562 CRISPRi (FIG. 1C) or CRISPRa (FIG. 1D) cells expressing sgRNAs treated with BisRoc-1 or rocaglamide. Data represent means of three biological replicates; error bars denote SD. FIG. 1E: Chemical structures of a BisRoc linker length series (see also FIG. 2B).
FIGS. 2A-2C. IFITM proteins assist the cellular activity of diverse linked chemotypes. FIG. 2A: Heavy atom skeletons of compounds assessed for IFITM assistance (see also FIG. 3 for chemical structures). Compounds were categorized as non-linked chemotypes (compounds 3, 6, and 8; black), linked chemotypes with short linkers (compounds 10 and 13; light gray), or linked chemotypes with long linkers (compounds 15 and 17; medium gray). FIG. 2B: Chemical-genetic interaction map of inhibitors in FIG. 2A with IFITM1, IFTM2, and IFITM3. Potency, as measured by dose-response IC50 in a cell viability assay (see also FIG. 1D for example source data), was normalized to that of non-sgRNA-expressing K562 CRISPRi or CRISPRa cells. Physicochemical properties, including molecular weight (MW) and number of rotatable bonds, with their respective traditional thresholds for drug-likeness are indicated (right). Data represent means of three biological replicates. FIG. 2C: Map of chemical space populated by 301 kinase inhibitors in clinical development (black), 2258 PROTACs reported in the literature (light gray), and 2 linked chemotypes described herein (medium gray). Boundaries represent traditional guidelines for drug-likeness.
Given the ubiquitous presence of IFITM proteins in cells, we hypothesized that the cellular uptake of other linked inhibitors in the literature could also be assisted by IFITM proteins. While not generally as large as the linked chemotypes described above, PROTACs are likewise composed of two chemical entities covalently attached by a flexible tether (15). […] Thus, we included several PROTACs and their non-linked parent inhibitors in an expanded survey of chemical-genetic interactions with IFITM proteins (FIG. 2A, FIGS. 3A-3B, and FIG. 4). We treated our K562 CRISPRi and CRISPRa cells with these inhibitors and evaluated differences in potency resulting from IFITM protein expression modulation, as measured by half-maximal inhibitory concentration (IC50) shift in a cell viability assay. […] The inverse finding, resistance to linked chemotypes, resulted from gene knockdown (FIG. 2B). Included among these compounds were a systematic linker series of BisRoc-1 analogs (FIG. 1E). […] The same trend was corroborated by the diverse ensemble of all molecules tested (FIG. 2B): the magnitudes of chemical-genetic interactions correlated with inhibitor size (molecular weight) and flexibility (number of rotatable bonds). […] Despite their cellular activities, the physicochemical properties of these linked chemotypes largely violate Lipinski's (1) and Veber's (2) classic guidelines (FIG. 2B and FIG. 4), raising the need for a revised drug design framework that considers IFITM-assisted uptake and other cellular import processes. […]

[5] = tested on: KBM7 cells; IFITM2; conditions: IFITM2 knockout, not validated; cited from earlier work

## CO[C@H]1C[C@@H]2CC[C@@H](C)[C@@](O)(O2)C(=O)C(=O)N2CCCC[C@H]2C(=O)O[C@H]([C@H](C)C[C@@H]2CC[C@@H](OCCOCc3cn(CCOCCOCCOCCOCCOCCOCCOCCOCCC(=O)NCCCCn4nc(-c5ccc6oc(N)nc6c5)c5c(N)ncnc54)nn3)[C@H](OC)C2)CC(=O)[C@H](C)/C=C(\C)[C@@H](O)[C@@H](OC)C(=O)[C@H](C)C[C@H](C)C=CC=CC=C1C [RapaLink-1]
[1]
  modulation of cell permeability by IFITM pathway: modulates the cell permeability
[2]
  activity in vivo: highly active in vivo
[3]
  blood-brain barrier penetration: penetrates the blood-brain barrier

## COc1ccc([C@@]23Oc4cc(OC)cc(OC)c4[C@]2(O)[C@H](O)[C@H](C(=O)NCCOCCOCCNC(=O)[C@H]2[C@@H](O)[C@@]4(O)c5c(OC)cc(OC)cc5O[C@@]4(c4ccc(OC)cc4)[C@@H]2c2ccccc2)[C@H]3c2ccccc2)cc1 [BisRoc-3]
[4]
  IFITM assistance versus linker length: longer linker lengths correlated with greater IFITM assistance

## Cc1sc2c(c1C)C(c1ccc(Cl)cc1)=N[C@@H](CC(=O)NCCCCCCCCNC(=O)COc1cccc3c1C(=O)N(C1CCC(=O)NC1=O)C3=O)c1nnc(C)n1-2 (stereo partly drawn) [dBET6]
[5]
  IFITM2 chemical-genetic interaction: statistically significant resistance chemical-genetic interaction

## COc1ccc([C@@]23Oc4cc(OC)cc(OC)c4[C@]2(O)[C@H](O)[C@H](C(=O)NCCOCCOCCOCCOCCNC(=O)[C@H]2[C@@H](O)[C@@]4(O)c5c(OC)cc(OC)cc5O[C@@]4(c4ccc(OC)cc4)[C@@H]2c2ccccc2)[C@H]3c2ccccc2)cc1 [BisRoc-2]
[4]
  IFITM assistance versus linker length: longer linker lengths correlated with greater IFITM assistance

## COc1ccc([C@@]23Oc4cc(OC)cc(OC)c4[C@]2(O)[C@H](O)[C@H](C(=O)NCCOCCOCCOCCOCCOCCOCCOCCOCCOCCOCCOCCNC(=O)[C@H]2[C@@H](O)[C@@]4(O)c5c(OC)cc(OC)cc5O[C@@]4(c4ccc(OC)cc4)[C@@H]2c2ccccc2)[C@H]3c2ccccc2)cc1 [BisRoc-1]
[4]; K562 CRISPRi/a cells, FIG. 1C-1D
  overall modulation in the cellular activity accounted for by IFITM proteins: 6.2 fold
[4]
  IFITM assistance versus linker length: longer linker lengths correlated with greater IFITM assistance

## COc1ccc([C@@]23Oc4cc(OC)cc(OC)c4[C@]2(O)[C@H](O)[C@H](C(=O)N(C)C)[C@H]3c2ccccc2)cc1 [rocaglamide]
[4]
  IFITM assistance versus linker length: longer linker lengths correlated with greater IFITM assistance
